Consider seven compounds from PubChem BioAssay (NCI).

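Five concentrations, 48 hours, 96-well plates. GI50 = concentration required for 50% inhibition of growth. Definition used: TGI = concentration required for complete inhibition of growth.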

Experiment in all cases: inhibition of tumour cell growth, NCI panel, 48 h
Assay [1] relates to OVCAR-5 ovarian.
In assay [2] the test system is NCI-H522 lung.
Assay [3] deals with IGROV1 ovarian.
In assay [4] the test system is OVCAR-4 ovarian.
Assay [5] deals with RXF 393 renal.
Assay [6] relates to A498 renal.
The subject of assay [7] is SF-295 CNS.
Assay [8] has as its system UACC-257 melanoma.
Assay [9] relates to SW-620 colon.
In assay [10] the test system is MDA-MB-435.

As for `COc1cc([N+](=O)[O-])c(OC)cc1-c1nc2sccn2c1/C=N/N=C(N)N`, the GI50 in [1] is 53.8 µM; in [2] it was 21 µM; in assay [3] it was 10.4 µM; in assay [4] it was 52.2 µM; in assay [5], 50.1 µM; in assay [6], 27.4 µM. Further, the GI50 is 19.5 µM in assay [7], 21.5 µM in assay [8], 15 µM in assay [9] and 15.5 µM in assay [10]. Besides, the TGI in assay [1] was greater than 100 µM; in assay [2], greater than 100 µM; in assay [3], 50 µM; in [4] it was greater than 100 µM; in assay [5] it was greater than 100 µM; in assay [6] it was 66.5 µM. The TGI in [7] is greater than 100 µM; in assay [8] it was 54.2 µM; in assay [9], greater than 100 µM; in assay [10], 52.3 µM.
With `Cc1nn(-c2ccc(Cl)cc2)c2nc3c(nc12)C(=O)C(=O)c1ccccc1-3`, the GI50 in assay [1] is 12 µM; in assay [2] it was 2.96 µM; in assay [3], 5.46 µM; in [4] it was 6.08 µM; in [5], 19.7 µM; in assay [6] it was 1.27 µM. Further, the GI50 was 1.72 µM in [7], 3.24 µM in assay [8], 3.25 µM in [9] and 6.31 µM in [10]. Also, the TGI in assay [1] was greater than 100 µM; in assay [2], 6.57 µM; in assay [3] it was 47.3 µM; in [4] it was greater than 100 µM; in assay [5], 64.6 µM; in assay [6], 2.96 µM. For the same compound, the TGI in assay [7] is 3.43 µM; in assay [8], 11.9 µM; in assay [9], 20.9 µM; in [10], greater than 100 µM.
In the case of `O=S(=O)(c1cccc2c(I)cccc12)N1CCCNCC1`, the GI50 in [1] is 16 µM; in [2], 14.8 µM; in assay [3], 15.8 µM; in assay [4] it was 18.6 µM; in assay [5], 27.3 µM; in assay [6], 14.2 µM. In addition, the GI50 in assay [7] is 16.1 µM; in assay [8], 23.1 µM; in assay [9], 17.1 µM; in assay [10], 17.7 µM. Also, the TGI was determined as 33.5 µM in [1]; 30.3 µM in assay [2]; 31.4 µM in [3]; 38.4 µM in assay [4]; 73 µM in assay [5]; 30.2 µM in [6]. Besides, the TGI in [7] came out at 34.1 µM; in assay [8], 43.2 µM; in assay [9] it was 51.4 µM; in assay [10] it was 35.6 µM.
Turning to `C=C1CC[C@@H]2[C@](C)(COC(C)=O)[C@H](OC(C)=O)CC[C@@]2(C)[C@@H]1CC(Nc1ccc(S(=O)(=O)Nc2ccc(Cl)nn2)cc1)C1=CCOC1=O` (stereo not given in full), the GI50 in assay [1] is 2.01 µM; in assay [2] it was 0.754 µM; in assay [3], 2.08 µM; in assay [4] it was 1.47 µM; in assay [5] it was 1.77 µM; in assay [6], 1.4 µM. Also, the GI50 in [7] was 3.28 µM; in [8], 1.67 µM; in assay [9], 1.07 µM; in assay [10] it was 1.4 µM. Besides, the TGI came out at 4.16 µM in assay [1]; 2.1 µM in assay [2]; 5 µM in assay [3]; 3.17 µM in assay [4]; 3.29 µM in [5]; 4.26 µM in assay [6]. Besides, the TGI amounted to 12.6 µM in [7], 3.89 µM in [8], 2.8 µM in assay [9] and 3.17 µM in [10].
For `Nc1c(C(=O)c2cccc(C#CCO)c2)cnn1-c1ccc(F)cc1`, the GI50 in [1] is greater than 25 µM; in [2], greater than 25 µM; in assay [3], greater than 25 µM; in [4] it was greater than 23.3 µM; in assay [5] it was greater than 25 µM; in assay [6], greater than 18.5 µM. The GI50 in assay [7], in assay [8], in assay [9] and in assay [10] was greater than 25 µM each time. The TGI in [1], in assay [2], in [3], in [4], in [5] and in assay [6] was greater than 25 µM in each case. The TGI in assay [7], in assay [8], in [9] and in assay [10] was greater than 25 µM in each case.
`CC(=O)[O][Sn]([CH2]c1ccccc1)([CH2]c1ccccc1)[CH2]c1ccccc1`: the GI50 in assay [1] is greater than 10 µM; in assay [2], greater than 3.86 µM; in assay [3] it was greater than 10 µM; in assay [4] it was greater than 4.36 µM; in assay [5] it was 3.98 µM; in [6] it was greater than 4.95 µM. Further, the GI50 in assay [7] was greater than 5.52 µM; in assay [8], greater than 10 µM; in assay [9] it was greater than 8.82 µM; in assay [10], greater than 7 µM. The TGI is greater than 10 µM in assay [1]; greater than 7.23 µM in assay [2]; greater than 10 µM in assay [3]; greater than 6.02 µM in [4]; greater than 4.64 µM in assay [5]; 9.94 µM in assay [6]. For the same compound, the TGI in [7] is greater than 6.84 µM; in assay [8] it was greater than 10 µM; in assay [9], greater than 10 µM; in [10], greater than 10 µM.
In the case of `Cc1nn(C)c(COc2ccc(N3CCN(S(=O)(=O)N(C)C)CC3)cc2)c1-c1cccc2c(CCCOc3cccc4ccccc34)c(C(=O)O)n(CCN3CCOCC3)c12`, the GI50 in [1] was 3.96 µM; in assay [2], 3.11 µM; in assay [3] it was 3.52 µM; in assay [4], 3.4 µM; in assay [5] it was 2.72 µM; in [6], 2.3 µM. Moreover, the GI50 was 2.78 µM in assay [7], 2.91 µM in assay [8], 3.59 µM in [9] and 3.4 µM in assay [10]. In addition, the TGI was 23.5 µM in assay [1]; 9.35 µM in assay [2]; 11.7 µM in assay [3]; 14.1 µM in assay [4]; 6.98 µM in [5]; 6.59 µM in [6]. Besides, the TGI in assay [7] came to 10.2 µM; in assay [8], 9.52 µM; in assay [9], 15 µM; in assay [10], 12 µM.
